Measurements published in patent US11360080B2, “AhR-ROR-γt complex as a biomarker and therapeutic target for autoimmune disease and IL-17A-associated disease” (NATIONAL HEALTH RESEARCH INSTITUTES, priority 2018, dated 2022).

Experiments:
[1] = test system: Lck-GLK Tg mice; test: Treatment of Lck-GLK Tg mice, serum ELISA; assay type: in vivo, mouse; details: 0.556 nmole/g i.v. every 3 days for 30 days
Text: (A to C) Effect of the GLK inhibitor C1 (verteporfin) administration (0.556 nmole/g every 3 days for 30 days) on serum IL-17A and autoantibodies in Lck-GLK Tg mice. (B) ELISA of indicated serum cytokines in Lck-GLK Tg mice treated with C1 (verteporfin) or PBS. (C) ELISA of serum autoantibodies in Lck-GLK Tg mice treated with C1 (verteporfin) or PBS. Means±SEM are shown. (D) Experimental autoimmune encephalomyelitis (EAE) induction in wild-type mice treated with PBS, or the GLK inhibitor C1 (verteporfin) and C2. Clinical scores are presented on a scale of 1 to 5 (left panel). ELISA of IL-17A in the sera from MOG-immunized mice at day 16 (right panel). (E) Collagen-induced arthritis (CIA) induction in wild-type mice treated with the GLK inhibitor C1 (verteporfin) or PBS. Clinical scores are presented on a scale of 1 to 16 (left panel). ELISA of IL-17A in the sera from collagen-immunized mice at day 28. […]
Serum levels of IL-1β, IL-4, IL-6, IL-12, IL-17F, IL-21, IL-22, IL-23, IFN-γ, TNF-α, and TGF-β were analyzed by individual ELISA kits purchased from eBioscience. The IL-17A levels were determined using an ELISA kit from Biolegend. The serum levels of anti-nuclear antibodies (ANA), anti-dsDNA antibody, and rheumatoid factor (RF) were analyzed by ELISA kits purchased from Alpha Diagnostic International. […]

[2] = test system: in vitro differentiated Th17 cells; test: IL-17A production of in vitro differentiated Th17 cells, flow cytometry; assay type: cell-based, mouse; details: PMA plus ionomycin, 1 or 5 μM for 30 min
Method: (A) Flow cytometry of IL-17A-producing CD4^+ T cells. Splenic T cells were co-treated with verteporfin (C1) (1 or 5 μM) during Th17 differentiation in vitro. (B) Flow cytometry of IL-17A-producing CD4^+ T cells. Murine in vitro differentiated Th17 cells were stimulated with PMA plus ionomycin and co-treated with verteporfin (C1) (1 or 5 μM) for 30 min. (C) Flow cytometry of Foxp3-producing […] T cells. Splenic T cells were co-treated with verteporfin (C1) (5 μM) during Treg differentiation in vitro. (D) Flow cytometry of Foxp3-producing CD4^+ T cells, which were differentiated from CD4^+ T cells of wild-type or Lck-GLK transgenic mice.

[3] = target: T1, GLK dimers (Homo sapiens, UniProt Q8IVH8); test: Co-immunoprecipitation of Flag-tagged GLK and GFP-fusion GLK in HEK293T cells; assay type: cell-based; details: HEK293T co-IP
T1 construct: expressed in transfected cells; host or cells: HEK293T
Text: (A) The molecular docking of GLK kinase domain structure with C1 (verteporfin). A three-dimensional structure model depicts the binding of C1 to the predicted GLK kinase domain containing phosphorylated Ser-170. The putative binding affinity was −7.4 kcal/mol. (B) The molecular docking of GLK kinase domain structure with C2 (alexidine dihydrochloride). A three-dimensional structure model depicts the binding of C2 to the predicted GLK kinase domain containing phosphorylated Ser-170. The putative binding affinity was −7.0 kcal/mol. (C) Co-immunoprecipitation (co-IP) of Flag-tagged GLK and GFP-fusion GLK using lysates of HEK293T cells co-transfected with Flag-GLK and GFP-GLK plasmids. Cells were treated with C1 (verteporfin) or C2 (alexidine dihydrochloride). (D) Administration of the GLK inhibitor C1 (0.556 nmole/g) or C2 (0.085 nmole/g) every 3 days for 30 days in the LLC/luc metastatic lung cancer mouse model. (E) The luciferase activity in mice treated with C1 (verteporfin), C2 (alexidine dihydrochloride), or vehicle was detected by IVIS Spectrum. (F) Luminescent intensity of photons emitted from LLC/luc cells in the images in (e) was quantified. (G) Representative immunohistochemistry of H&E in lung tissues from mice treated with C1 (verteporfin), C2, or vehicle. Scale bar, 0.5 cm. […]

T1 sequence (Q8IVH8 whole entry, the tested form may be a part): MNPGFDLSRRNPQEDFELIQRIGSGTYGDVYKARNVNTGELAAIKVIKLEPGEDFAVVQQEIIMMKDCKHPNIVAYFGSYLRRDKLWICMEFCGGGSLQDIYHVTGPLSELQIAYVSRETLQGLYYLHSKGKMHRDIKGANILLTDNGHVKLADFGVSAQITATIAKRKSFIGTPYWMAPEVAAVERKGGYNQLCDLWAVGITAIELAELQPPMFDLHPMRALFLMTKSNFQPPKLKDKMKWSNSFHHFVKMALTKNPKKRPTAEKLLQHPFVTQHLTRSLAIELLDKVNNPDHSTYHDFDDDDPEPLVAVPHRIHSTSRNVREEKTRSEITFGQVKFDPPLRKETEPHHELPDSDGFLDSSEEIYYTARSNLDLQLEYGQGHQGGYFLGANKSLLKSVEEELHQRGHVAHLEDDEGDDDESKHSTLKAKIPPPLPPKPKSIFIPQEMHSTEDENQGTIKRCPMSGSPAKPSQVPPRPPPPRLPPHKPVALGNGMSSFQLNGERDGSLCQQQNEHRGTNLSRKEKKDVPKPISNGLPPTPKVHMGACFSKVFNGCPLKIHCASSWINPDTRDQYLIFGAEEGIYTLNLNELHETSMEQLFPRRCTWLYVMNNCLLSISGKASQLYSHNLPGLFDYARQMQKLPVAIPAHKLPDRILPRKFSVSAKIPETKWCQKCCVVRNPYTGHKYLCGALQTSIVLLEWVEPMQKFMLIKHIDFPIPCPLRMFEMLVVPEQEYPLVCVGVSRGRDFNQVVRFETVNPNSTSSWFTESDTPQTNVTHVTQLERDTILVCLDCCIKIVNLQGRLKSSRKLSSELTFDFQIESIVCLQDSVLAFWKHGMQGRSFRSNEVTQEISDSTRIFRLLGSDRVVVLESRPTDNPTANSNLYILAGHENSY

dimerization of Flag-tagged GLK protein and GFP-GLK fusion protein [3]: blocked
SMILES: C=Cc1c(C)c2cc3nc(cc4[nH]c(cc5nc(cc1[nH]2)C(C)=C5CCC(=O)O)c(CCC(=O)OC)c4C)[C@@]1(C)C3=CC=C(C(=O)OC)[C@H]1C(=O)OC [C1, verteporfin]
overproduction of autoantibodies [1]: abolished
serum IL-17A levels ([1]; vs PBS): significantly decreased
IL-17A production from in vitro differentiated Th17 cells [2]: inhibited
